In patent publication US20240181068A1, “SELECTIVE NEUTRAL PH INHIBITOR OF CATHEPSIN B” (The Regents of the University of California, priority 2021, published 2024):

Columns and labels:
Type in all cases: biochemical
cathepsin B [1] = target: T1, cathepsin B (Homo sapiens, UniProt P07858); test: Cathepsin B inhibitor kinetic characterization, fluorogenic assay with Z-Phe-Arg-AMC; settings: for reduction of cathepsin B activity: 64 nM inhibitor; for kinact/KI / Ki / IC50: cathepsin B
T1 construct: purchased R&D Systems 953-CY-010
Method: Inhibitor kinetic characterization using fluorogenic assays for cathepsin B activity. Kinetic analyses of IC50, K1, kobs, and kinact/K1 values for Z-Arg-Lys-AOMK and Z-Glu-Lys-AOMK inhibition of cathepsin B were conducted by fluorogenic proteolytic assays consisting of 40 μM Z-Phe-Arg-AMC, 40 mM citrate phosphate at pH 7.2 or pH 4.6, 1 mM EDTA, 100 mM NaCl, 5 mM DTT, and 0.01% Tween 20; assays were performed at room temperature (22-27° C.) in quadruplicate. Inhibitor and substrate were combined in the reaction well, and the assay was started upon addition of cathepsin B (0.04 ng/μL). The inhibitor concentration ranged from 5.5 μM to 1.1 nM (1.5-fold serial dilution). A vehicle control assay contained 2% DMSO instead of inhibitor. Enzyme velocity (RFU/sec) was measured during a […] incubation period as relative fluorescent units per sec (RFU/s), calculated using the highest slope recorded for 10 consecutive readings taken at 46 sec intervals (thus, activity is calculated over a total of 460 sec). Prism software was used to analyze enzyme activity data in kinetic studies. IC50 values were calculated (without preincubation of inhibitor and enzyme) as the concentration of inhibitor that reduced cathepsin B activity by 50%.
For determination of K1 and kinact/K1 kinetic inhibition constants, kobs constants were determined by plots of cathepsin B activity in time courses with different inhibitor concentrations by curve fitting slope data of RFU versus time into Y=Y0*e^(−kobs*^X), where Y0 is the activity for the control with no inhibitor condition, Y is the activity in the presence of inhibitor, X is time. K1 and kinact values were calculated from curve fitting the kobs values into the equation kobs=kinact*[I]/(K1+[I]), where [I] is inhibitor concentration, and K1 is the x-axis inhibitor concentration where y=kinact/2 and kinact is the maximum rate of inactivation at saturating inhibitor concentrations (93, 94). These kinetic analyses are for irreversible inhibitors, Z-Arg-Lys-AOMK and Z-Glu-Lys-AOMK of this study, that utilize Ki values, rather than Ki values used for reversible inhibitors (93).

cathepsin V = target: T2, cathepsin V (Homo sapiens, UniProt O60911); test: Specificity of inhibitors: cathepsin V (Z-Phe-Arg-AMC substrate)
T2 construct: purchased R&D Systems 1080-CY-010
T2 sequence (O60911 114-334): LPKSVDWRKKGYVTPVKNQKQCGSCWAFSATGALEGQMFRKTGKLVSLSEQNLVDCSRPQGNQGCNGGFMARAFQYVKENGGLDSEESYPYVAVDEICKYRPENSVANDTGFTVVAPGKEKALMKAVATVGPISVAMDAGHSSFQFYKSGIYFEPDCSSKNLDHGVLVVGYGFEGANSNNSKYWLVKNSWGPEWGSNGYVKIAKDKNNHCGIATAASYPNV
Method: (§1) Specificity of inhibitors for other cysteine cathepsin proteases. The effects of Z-Arg-Lys-AOMK and Z-Glu-Lys-AOMK on cathepsin V, L, K, S, X, H and C activities were assessed. IC50 values were calculated at pH 4.6 and pH 7.2 conditions, consisting of 40 mM citrate phosphate, 1 mM EDTA, 100 mM NaCl, and 5 mM DTT. The inhibitor concentrations ranged from 16.38 μM to 256 nM with 2-fold serial dilutions. […] Cathepsin V (0.04 ng/μL), cathepsin L (0.03 ng/μL), cathepsin K (0.10 ng/μL), cathepsin S (0.20 ng/uL) were assayed with 40 μM Z-Phe-Arg-AMC. Cathepsin X (0.20 ng/uL), cathepsin C (0.51 ng/uL) and cathepsin H (0.1 ng/μL) were assayed with 40 μM of MCA-Arg-Pro-Pro-Gly-Phe-Ser-Ala-Phe-Lys(Dnp)OH (SEQ ID NO: 2), Gly-Arg-AMC, and Arg-AMC, respectively. Activation of pro-cathepsin H to cathepsin H was conducted by incubation of cathepsin H (4.4 ng/μL) with cathepsin L (1.1 ng/μL) at RT for 2 hrs in activation buffer (20 mM citrate phosphate pH 6.0, 100 mM NaCl, and 5 mM DTT). Cathepsin C (13.78 ng/μL) was activated by incubation with cathepsin L (3.4 ng/μL) at RT for one hr in activation buffer (20 mM citrate phosphate, pH 6.0, 100 mM NaCl, 5 mM DTT). […] For all assays containing peptide-AMC substrates the fluorescent microplate reader settings were the same as outlined above for cathepsin B. For the cathepsin X assay, the plate reader was set to excitation 320 nm, emission 400 nm, gain 105, top optics and read height 1 mm. To convert RFU/s to picomol/min, 10 μM to 0.005 μM (2-fold serial dilution) of MCA-Arg-Pro-Pro-Gly-Phe-Ser-Ala-Phe-Lys(Dnp)OH (SEQ ID NO: 2) was fully hydrolyzed with excess cathepsin X and a standard curve was generated using the total fluorescence values calculated at each concentration.

cathepsin X = cathepsin X (Homo sapiens, UniProt Q9UBR2); test: Specificity of inhibitors: cathepsin X (MCA peptide substrate)
cathepsin X, sequence (Q9UBR2 62-303): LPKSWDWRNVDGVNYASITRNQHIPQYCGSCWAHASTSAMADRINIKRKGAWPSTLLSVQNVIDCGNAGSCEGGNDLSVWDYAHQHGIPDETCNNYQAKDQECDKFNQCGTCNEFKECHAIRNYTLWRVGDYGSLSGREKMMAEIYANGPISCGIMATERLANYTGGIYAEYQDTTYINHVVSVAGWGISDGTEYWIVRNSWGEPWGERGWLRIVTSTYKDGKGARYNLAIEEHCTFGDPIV
Method: as §1

cathepsin B [2] = target: T1, cathepsin B; test: Irreversible mechanism of inhibitors (pre-incubation, dilution, activity); settings: pH 7.2
Method: Irreversible mechanism of inhibitors. The irreversible or reversible mechanism of cathepsin B inhibition was assessed for Z-Arg-Lys-AOMK and Z-Glu-Lys-AOMK inhibitors. At pH 7.2, cathepsin B was incubated with 190 nM Z-Arg-Lys-AOMK and 4.99 μM Z-Glu-Lys-AOMK for 15 min in pH 7.2 assay buffer and the assay was performed as described above for pH 4.6. Proteolytic activity was monitored for 2 hr. At pH 4.6, cathepsin B (activated, 3.7 ng/μL) was incubated with 4.24 μM Z-Arg-Lys-AOMK and 3.48 μM Z-Glu-Lys-AOMK for 15 min in 40 mM citrate phosphate pH 4.6, 1 mM EDTA, 100 mM NaCl, and 5 mM DTT; a vehicle control contained 2.5% DMSO. Each reaction was then diluted 100-fold in assay buffer such that the final assay composition was 0.04 ng/μL cathepsin B, 40 μM Z-Phe-Arg-AMC, and an inhibitor concentration of 1/10th the IC50 value.

Cc1cccc(C)c1C(=O)OCC(=O)C(CCCCN)NC(=O)C(CCCNC(=N)N)NC(=O)OCc1ccccc1 (stereo not drawn) [Z-Arg-Lys-AOMK]
reduction of cathepsin B activity (cathepsin B [1]; pH 4.6, Z-Phe-Arg-AMC substrate): 5% | reduction of cathepsin B activity (cathepsin B [1]; pH 7.2, Z-Phe-Arg-AMC substrate): 93% | kinact/KI (cathepsin B [1]; pH 4.6): 1800 M⁻¹ s⁻¹ | Ki (cathepsin B [1]; pH 4.6, irreversible inhibitor): 15000 nM | IC50 (cathepsin B [1]; pH 4.6, without preincubation): 1500 nM | IC50 (cathepsin B [1]; pH 6.8 (data not shown)): 22 nM | kinact/KI (cathepsin B [1]; pH 7.2): 110000 M⁻¹ s⁻¹ | Ki (cathepsin B [1]; pH 7.2, irreversible inhibitor): 130 nM | IC50 (cathepsin B [1]; pH 7.2, without preincubation): 20 nM | IC50 (cathepsin V; cathepsin V, pH 4.6): > 16000 nM | inhibition at 16 µM (cathepsin V; cathepsin V, pH 4.6, 16,000 nM inhibitor): 63% | IC50 (cathepsin V; cathepsin V, pH 7.2): 440 nM | inhibition of cathepsin V (cathepsin V; pH 4.6, inhibitor at 16 μM): minimal inhibition | fold more potent for cathepsin B than cathepsin V (cathepsin V; pH 7.2, from IC50): 22 fold | IC50 (cathepsin X; cathepsin X, pH 4.6): > 16000 nM | inhibition at 16 µM (cathepsin X; cathepsin X, pH 4.6, 16,000 nM inhibitor): 21% | inhibition of cathepsin X (cathepsin X; pH 4.6, inhibitor at 16 μM): minimal inhibition | cathepsin B activity after pre-incubation and dilution of inhibitor (cathepsin B [2]): no cathepsin B activity
